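Five concentrations, 48 hours, 96-well plates. At the TGI there is no net growth.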
Columns and labels:
Assay in all cases: growth of human tumour cells (NCI), 48 h
[1] = system: A498 renal
[2] = system: MCF7 breast
[3] = system: SN12C renal
[4] = system: ACHN renal
[5] = system: TK-10 renal
[6] = system: EKVX NSCLC
[7] = system: K-562 leukemia
[8] = system: NCI-H460 lung
[9] = system: U251 CNS
[10] = system: RPMI-8226 leukemia
[11] = system: HT29 colon
[12] = system: IGROV1 ovarian
[13] = system: HS 578T breast
[14] = system: MDA-N
[15] = system: NCI-H23 lung
[16] = system: LOX IMVI melanoma
[17] = system: DU-145 prostate
[18] = system: M14 melanoma
[19] = system: HOP-62 NSCLC
[20] = system: OVCAR-5 ovarian
[21] = system: MDA-MB-435
[22] = system: BT-549 breast
[23] = system: SK-MEL-5 melanoma
[24] = system: SF-295 CNS
[25] = system: SNB-75 CNS
[26] = system: UACC-257 melanoma
[27] = system: MOLT-4 leukemia
[28] = system: KM12 colon
[29] = system: NCI-H226 lung
[30] = system: COLO 205 colon
[31] = system: MALME-3M melanoma
[32] = system: RXF 393 renal
[33] = system: HCC-2998 colon
[34] = system: SK-OV-3 ovarian
[35] = system: SF-268 CNS
[36] = system: SK-MEL-2 melanoma
[37] = system: UACC-62 melanoma
[38] = system: HCT-15 colon
[39] = system: PC-3 prostate
[40] = system: UO-31 renal

CC(=O)OC1C(C)OC(OC(=O)C2CCC3C(C2)OC2(CC(OC(=O)/C=C/c4ccccc4)C(C)CO2)C32CO2)C(OC2OC(C)C(O)C(OC(C)=O)C2O)C1O (stereo not given)
TGI [1]: 286 nM
TGI [2]: > 100 µM
TGI [3]: < 10 nM
TGI [4]: 1190 nM
TGI [5]: > 100 µM
TGI [6]: 1270 nM
TGI [7]: > 100 µM
TGI [8]: < 12.5 nM
TGI [9]: < 10 nM
TGI [10]: < 10 nM
TGI [11]: < 10 nM
TGI [12]: < 10 nM
TGI [13]: < 10 nM
TGI [14]: < 10 nM
TGI [15]: < 10 nM
TGI [16]: < 10 nM
TGI [17]: 21.3 nM
TGI [18]: 104 nM
TGI [19]: > 100 µM
TGI [20]: 40.7 nM
TGI [21]: < 10 nM
TGI [22]: < 33.5 nM
TGI [23]: 165 nM
TGI [24]: < 30.4 nM
TGI [25]: < 10 nM
TGI [26]: < 13.7 nM
TGI [27]: < 10 nM
TGI [28]: < 12.3 nM
TGI [29]: < 10 nM
TGI [30]: > 100 µM
TGI [31]: < 10 nM
TGI [32]: < 43.4 nM
TGI [33]: < 10 nM
TGI [34]: > 100 µM
TGI [35]: < 13.6 nM
TGI [36]: < 10 nM
TGI [37]: < 10 nM
TGI [38]: 5.8 µM
TGI [39]: 40.2 nM
TGI [40]: 2960 nM
